Assay [1] in a line: Chronic weight loss study in diet-induced obese (DIO) rats. The format is in vivo, rat. How it is done:
DIO rats were sorted into treatment groups based on body weight, total kilocalories consumed, and body composition (via echo MRI). […] To assess the importance of compensatory over-eating in drug-treated animals, a subgroup of rats that received 5 mg/kg of dapagliflozin was restricted to the food intake of the placebo group. Body weight and the weight of both diets were determined daily. Respiratory quotient data were obtained on days 2 and 15 of the study, echo MRI was obtained on day 22, and blood was collected for a fasting clinical chemistry tests on day 27.
Percent weight changes were calculated as […].
The weight loss study with Compound IIIA (0.1, 0.3, 1, and 3 mg/kg) was performed using the same methods as the Dapagliflozin study.

How the values of assay [2] were obtained: Patients with type 2 diabetes were treated with placebo, 5 mg dapagliflozin propylene glycol, 25 mg dapagliflozin propylene glycol, or 100 mg dapagliflozin propylene glycol.
The nature of assay [3]: 12-week once-daily oral treatment of treatment naive type II diabetes mellitus patients (glucosuria, body weight, BMI). Format: in vivo, human. Conditions: type II diabetic patients, each dose group, 12 weeks. How it is done:
Treatment naive type II diabetes mellitus patients, n=389, with inadequate blood glycemic control and low mean glucosuria at baseline were given once-daily oral treatments with dapagliflozin (2.5, 5, 10, 20, or 50 mgs), metformin XR® (750 mg titrated to 1500 mgs), or placebo over 12-weeks.

For `CCc1ccc(Cc2cc([C@@H]3O[C@H](CO)[C@@H](O)[C@H](O)[C@H]3O)ccc2Cl)cc1` [Compound IIIA, (2S,3R,4R,5S,6R)-2-(4-chloro-3-(4-ethylbenzyl)phenyl)-6-(hydroxymethyl)tetrahydro-2H-pyran-3,4,5-triol], the weight loss entry in assay [1] (DIO rats, 0.1, 0.3, 1 and 3 mg/kg daily over 25 days (FIG. 5)) is “significant weight loss in diet-induced obese rats in a dose proportional manner”.

As to `CCOc1ccc(Cc2cc([C@@H]3O[C@H](CO)[C@@H](O)[C@H](O)[C@H]3O)ccc2Cl)cc1` [Dapagliflozin-PGS, dapagliflozin propylene glycol hydrate], the “glucosuric effects: loss of calories in the urine (glucose excretion/day)” value in assay [2] (healthy subjects, single doses 5, 20, 50 or 100 mg, indirect comparison versus GSK 869,682 (FIG. 1)) is given as “significant loss of calories in the urine”. Moreover, in assay [2] (subjects with type 2 diabetes, 5 mg, 25 mg and 100 mg, 14-day study (FIG. 2)), the “24-hour urine glucose excretion compared to placebo” value is “significantly higher urine glucose excretion”. The “weight loss when compound-induced overeating was prevented (pair fed to vehicle group)” value in assay [1] (DIO rats, 5 mg/kg subgroup restricted to food intake of placebo group (FIG. 4)) is “weight loss was greater”. Besides, in assay [1] (DIO rats, oral 0.5, 1 and 5 mpk daily over 25 days, p<0.05 (FIG. 4)), the “weight loss versus vehicle” value is “significant weight loss”. For the same compound, the “proportion of patients achieving a 5% weight reduction versus placebo” value in assay [3] is “higher proportion”.
